# Assay: AUC (0 to infinity) in Sprague-Dawley rat at 20 mg/kg, po measured up to 24 hrs by LC-MS/MS analysis
# Format: ADME, organism-based
# Set-up: dose 20 mg/kg, route oral, time infinity
# Details: in vivo
structure (smiles),measurement,value
O=C(C[C@@H](CC1CCCC1)C(=O)N1CC2(CC2)C[C@H]1c1nc(-c2ccc(F)cc2C(F)(F)F)no1)NO,AUC,0.94 µg·h/mL

# Reference: ChEMBL document CHEMBL4616720 (J Med Chem, 2020)
